# Target: T1, human melanopsin (Homo sapiens, UniProt Q9UHM6)
# T1 sequence (Q9UHM6 1-384 limits assumed): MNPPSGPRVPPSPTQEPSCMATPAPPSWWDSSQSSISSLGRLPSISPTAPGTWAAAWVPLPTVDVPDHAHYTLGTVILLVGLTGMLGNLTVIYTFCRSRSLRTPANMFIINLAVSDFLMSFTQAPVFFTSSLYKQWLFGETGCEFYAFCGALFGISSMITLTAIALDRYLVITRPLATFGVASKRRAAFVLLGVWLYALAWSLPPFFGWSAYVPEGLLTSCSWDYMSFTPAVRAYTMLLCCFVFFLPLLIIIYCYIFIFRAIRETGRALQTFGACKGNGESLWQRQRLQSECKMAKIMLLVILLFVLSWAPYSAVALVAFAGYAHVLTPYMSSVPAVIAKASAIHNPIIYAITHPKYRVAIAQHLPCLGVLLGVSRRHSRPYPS
# Assay: GsX GloSensor assay with exogenous Gsα WT
# Format: cell-based
# Set-up: the C-terminal amino acid residues (94, 140, 200, 214, 296, and 308 residues); expressed in transfected cells; host or cells: COS-1
# Settings: 16.7 μM AA92593; COS-1 cells
# Description: Previous studies of human and mouse melanopsins reported that these melanopsins can activate not only Gq but Gs and Gi ([20], [21], [22]). Thus, we assessed the effect of AA92593 on Gsα WT or Gsα/i11 (with 11 C-terminal sequence of Giα) using the GsX GloSensor assay. In agreement with the promiscuous G protein-coupling of melanopsins, we observed light-dependent increase of GloSensor luminescence in COS-1 cells expressing Gsα or Gsα/i11 with human/mouse melanopsins (Fig. 1, G–J).
# For GloSensor assay, opsins, GloSensor assay sensor (coded by pGlo-22F), and NanoBiT-tagged G proteins were transiently expressed in COS-1 cells (kindly provided from Dr David Farrens, Oregon Health and Science University) using PEI as described previously ([24], [52]). […] For GFP-fluorescence microscopy, a 35-mm cell culture dish (IWAKI) was transfected with 2 μg melanopsin-GFP plasmid and 8 μg PEI in 400 μl Opti-mem and 1.2 ml D-MEM. […]
# The transfected COS-1 cells were incubated at 37 °C, 5% CO2 for 2 days, and the medium was aspirated and exchanged with 50 μl of HBSS (145 mM NaCl, 10 mM D-glucose, 5 mM KCl, 1 mM MgCl2, 1.7 mM CaCl2, 1.5 mM NaHCO3, 10 mM Hepes, pH 7.4), containing 33.3, 20, 10, 2, 0.2, 0.02, 0.002, or 0 μM AA92593, 0.5% dimetyl sulfoxide (DMSO), and 4% (vol/vol) GloSensor cAMP reagent stock solution. […] Luminescence was measured using GM-2000 or GM-3510 microplate reader (Promega). […]
structure (smiles),measurement,value
COc1ccc(S(=O)(=O)N2CCCCC2)cc1C [AA92593],effect on melanopsin-induced cAMP responses via exogenous Gsα,can suppress

# From PMC12051620, “Molecular basis underlying the specificity of an antagonist AA92593 for mammalian melanopsins” (The Journal of Biological Chemistry, 2025)
